These results are taken from patent EP0845217A1, “Inhibiting undesirable taste in oral compositions” (priority 1996, dated 1998).

Where a name gives a salt, the structure may show the parent alone.

The term Ki denotes a dissociation constant, usually derived from enzyme kinetics or from competition with a known ligand. A high value points to weaker binding.

The target of one assay is alkaline phosphatase (Bos taurus, UniProt P19111). The class given is biochemical, bovine. The settings on record: PNPP substrate. As for the experimental part: Enzyme kinetics experiments are done using purified alkaline phosphatase from bovine intestine and the substrate para-nitrophenyl phosphate (PNPP). The formation of colored para-nitrophenol (PNP) from colorless PNPP is followed by measuring the color formation in the presence of inhibitor at several concentrations.
Sequence of alkaline phosphatase (P19111 20-506): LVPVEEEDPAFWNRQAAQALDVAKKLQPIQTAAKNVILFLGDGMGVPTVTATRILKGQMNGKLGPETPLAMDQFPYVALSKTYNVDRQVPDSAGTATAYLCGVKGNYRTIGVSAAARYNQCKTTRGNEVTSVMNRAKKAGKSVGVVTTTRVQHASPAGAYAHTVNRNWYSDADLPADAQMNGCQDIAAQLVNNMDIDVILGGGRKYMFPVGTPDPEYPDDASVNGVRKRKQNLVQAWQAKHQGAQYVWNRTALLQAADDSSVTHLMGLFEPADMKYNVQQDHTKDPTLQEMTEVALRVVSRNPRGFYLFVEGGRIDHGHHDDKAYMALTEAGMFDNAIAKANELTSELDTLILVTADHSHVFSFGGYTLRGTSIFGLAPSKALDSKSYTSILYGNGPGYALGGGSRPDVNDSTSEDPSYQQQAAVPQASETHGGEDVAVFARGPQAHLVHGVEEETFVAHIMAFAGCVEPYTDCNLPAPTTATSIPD
Specifically, enzyme reactions are done in a volume of 200 ul containing 12.5 mU/ml alkaline phosphatase, PNPP at concentrations between 0.5-200 mM, and an inhibitor at concentrations between 0-100 mM. […] Phosphoserine is the natural substrate for this enzyme. The final buffer solution is 0.9 M diethanolamine and 0.5 mM […], pH 9.8, mixed 3:1 (v:v) with water. Reactions are done in a 96-well microtiter plate. The enzyme reaction is initiated by the addition of the enzyme. Each reaction mixture is done in triplicate. The enzyme reaction is monitored by measuring the optical density (OD) at 405 nm, with a reference OD of 490 nm. The OD's are read every 30 seconds over a 15 minute period at room temperature. PNP concentration is determined based on a standard curve correlating OD405/490 vs. PNP concentration. […] The data is then transformed and plotted as the Kmapp / Vmax. vs. inhibitor concentration. From these plots the dissociation constant of the enzyme-inhibitor complex, Ki, is determined. The x-intercept on this plot equals (-Ki). […]

Assay [1] relates to purified protein tyrosine phosphatase. The experiment in a line: Purified protein tyrosine phosphatase, dephosphorylation of phosphotyrosine-containing peptide substrates. The class given is biochemical. The settings on record: experiments not described.
For another assay, the system named is mud puppy taste cells. Description: Response of isolated taste cells to bitter-tasting compounds, intracellular calcium fluorescence. The format is cell-based. The settings on record: for effect on taste cell response to denatonium benzoate: inhibitor mixed with denatonium benzoate; for effect on taste cell response to dextromethorphan: inhibitor mixed with dextromethorphan; for taste cell response to bitter tasting compound: bitter compound alone. As for the experimental part:
Taste cells are isolated from the mud puppy, a type of salamander (S. C. Kinnamon, et al, Chemical Senses 13: 355 - 366, 1988). Briefly, a fresh mud puppy tongue is incubated with collagenase, the non-gustatory epithelium is peeled off the surface, and individual taste buds are gently drawn into a micropipette using a dissecting microscope at 50X magnification. The taste buds are plated into small vessels, that are coated with Cell-Tak, containing culture media. The taste cells can remain viable up to 18 days and maintain normal functions (C. Ruiz, et al, Experimental Cell Biology of Taste and Olfaction, Current Techniques and Protocols, A. I. Spielman and J. G. Brand, eds., CRC Press, 1995, pp. 79 - 84). The taste cells are labeled intracellularly with a marker compound that fluoresces in a dose-dependent fashion to calcium ion concentration. Since an increase in the intracellular calcium ion concentration is one of the last steps in converging biochemical signal transduction pathways for bitterness, the fluorescent marker correlates with taste cell response to bitterness (D. Restrepo, et al, Experimental Cell Biology of Taste and Olfaction, Current Techniques and Protocols, A. I. Spielman and J. G. Brand, eds., CRC Press, 1995, pp. 387 - 398). Labeled taste cells are observed microscopically using image analysis software. Using a micropipette, taste cells are exposed to bitter-tasting compounds by adding the compounds in media near the taste cell. Cells that respond to the bitter-tasting compound show an increase in fluorescence intensity. Bitter inhibitors are tested by adding them to the test solution with the bitter-tasting compound. The response of individual taste cells to bitter-tasting compounds and to bitter-tasting compounds plus inhibitor are monitored by measuring the fluorescent intensity using a microscope. Images are stored electronically and image analysis software is used to analyze the data (D. Restrepo, et al, Biophysical Journal 64: 1961 - 1966, 1993).

Assay [2] deals with Pig taste tissue tyrosine phosphatase. The experiment in a line: Protein tyrosine phosphatase activity of pig taste tissue homogenate, phosphotyrosine peptide substrates, ELISA. The format is biochemical. The settings on record: for % Total Phosphatase Activity: pig taste tissue 615 ug/ml protein, 10°C for 20 min. As for the experimental part: Taste tissue (circumvallate papillae) is dissected from fresh pig tongue and homogenized in buffer. Protein tyrosine phosphatase activity is measured using peptides containing phosphotyrosine as the substrate. Two substrates are used. […] The removal of phosphate from the phosphotyrosines is determined by measurement of phosphotyrosine concentration, using an ELISA, after reaction of the peptide substrate with pig taste tissue. The activity of purified tyrosine phosphatase is determined in each experiment as a control.
In this experiment, pig taste tissue and peptide substrate are combined in a buffer of 20 mM Tris, 0.1% beta-mercaptoethanol, and 1 mg/ml BSA, pH 7.0. A total volume of 100 ul in each well of a 96-well microtiter plate is used. […] The enzyme reaction is done at 10°C for 20 min. The reaction is stopped by the addition of 25 ul 400 uM sodium orthovanadate. […]
In another experiment using the same conditions as described above, the tyrosine dephosphorylation of peptide substrate 1 is measured after 1, 2, 3, 4, 5, 6, 7 and 8 minute reactions at room temperature with pig taste tissue (41 ug/ml protein) as the enzyme source.

In assay [3] the target is protein tyrosine phosphatase (Yersinia enterocolitica, UniProt P15273). The experiment in a line: Protein tyrosine phosphatase enzyme kinetics with PNPP substrate. The class given is biochemical. The settings on record: pH 7.5. As for the experimental part: Enzyme kinetics are done using purified protein tyrosine phosphatase from the bacteria, Yersinia enterocolitica, recombinant form, with PNPP as the substrate. The enzyme kinetics experiments are done similarly to the kinetics experiments for alkaline phosphatase and acid phosphatase described above.
Sequence of protein tyrosine phosphatase (P15273 whole entry): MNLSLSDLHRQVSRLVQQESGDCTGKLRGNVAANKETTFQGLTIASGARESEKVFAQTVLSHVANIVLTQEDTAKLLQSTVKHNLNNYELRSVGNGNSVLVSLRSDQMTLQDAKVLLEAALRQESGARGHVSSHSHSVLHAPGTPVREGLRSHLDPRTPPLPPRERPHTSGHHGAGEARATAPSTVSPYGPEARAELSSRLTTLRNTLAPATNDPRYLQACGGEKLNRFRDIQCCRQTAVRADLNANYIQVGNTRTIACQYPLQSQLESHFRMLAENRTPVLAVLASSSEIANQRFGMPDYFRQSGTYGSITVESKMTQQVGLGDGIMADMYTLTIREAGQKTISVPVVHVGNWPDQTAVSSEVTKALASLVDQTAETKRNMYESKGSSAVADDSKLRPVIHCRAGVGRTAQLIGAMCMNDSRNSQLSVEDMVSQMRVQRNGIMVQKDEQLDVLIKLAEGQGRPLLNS
Each final reaction mixture contains 20 mM Tris, 0.1 % beta-mercaptoethanol, and 0.1% bovine serum albumin at pH 7.5. The ionic strength of each reaction mixture is the same and is balanced by the addition of the appropriate amount of NaCl. Activity of this enzyme is extremely sensitive to ionic strength. Each reaction is begun with the addition of tyrosine phosphatase. The formation of PNP is monitored by measuring the OD405/490 at 30 second intervals over a 30 minute period. The enzyme velocity is linear over this time period under these conditions. The Ki values are calculated as described above for alkaline phosphatase (Table 2).

Consider `N[C@@H](COP(=O)(O)O)C(=O)O` [Phosphoserine, reference compound], for which, on alkaline phosphatase, the “type of inhibition of alkaline phosphatase” value was “competitively inhibited”.
As for `[Na+].[Na+].[Na+].[O]=[V]([O-])([O-])[O-]` [sodium orthovanadate], the “effect on tyrosine phosphatase activity against peptide substrates” value (“effect on tyrosine phosphatase activity” for short) in assay [1] is given as “inhibits the tyrosine phosphatase activity”. Further, the “effect on taste cell response to denatonium benzoate” value (from here on “effect … to denatonium benzoate”) in the assay with mud puppy taste cells was “inhibits the response”. Besides, the “% Total Phosphatase Activity” value in assay [2] (Peptide Substrate 1) stood at 32%; in assay [2] (Peptide Substrate 2) it was 46%. In addition, the “time until complete dephosphorylation of substrate 1” value in assay [2] (pig taste tissue 41 ug/ml protein, room temperature, final concentration 100 nmoles/ml) turned out to be 7 min.
On to `NCCC(O)(P(=O)(O)O)P(=O)(O)O` [Pamidronic acid, pamidronic acid], for which, in the assay with mud puppy taste cells, the “effect … to denatonium benzoate” value is “small reduction in response” and the “effect on taste cell response to dextromethorphan” value (“effect … to dextromethorphan” below) is given as “small reduction in response”.
Regarding `O=P(O)(O)CP(=O)(O)O` [Methylene diphosphonic acid], in the assay with mud puppy taste cells (denatonium benzoate), the “share of taste cells tested with small decrease in response to denatonium benzoate” value is 50%. For the same molecule, the “effect … to denatonium benzoate” value with mud puppy taste cells is given as “small decrease in response”.
`C=CCc1ccc(OP(=O)(O)O)c(OC)c1` [EMP, eugenylmonophosphate]: the “effect on tyrosine phosphatase activity” value in assay [1] is reported as “inhibits the activity”. Moreover, the “type of inhibition of alkaline phosphatase” value at alkaline phosphatase is listed as “competitively inhibited”. Besides, the Ki was found to be 3.7 mM in assay [3] (22°C) and 3.3 mM in assay [3] (37°C).
On to `CN(C)CCC(c1ccc(Cl)cc1)c1ccccn1` (stereo not drawn) [chlorpheniramine maleate], for which the “taste cell response to bitter tasting compound” value in the assay on mud puppy taste cells is reported as “increase in intracellular calcium concentration”.
As for `F` [calcium fluoride], the “effect on tyrosine phosphatase activity” value in assay [1] is on record as “does not affect tyrosine phosphatase activity”. In addition, the figures for the “% Total Phosphatase Activity” value in assay [2] (Peptide Substrate 1) and in assay [2] (Peptide Substrate 2) were 109% and 96%, respectively. Moreover, in assay [2] (pig taste tissue 41 ug/ml protein, room temperature, calcium fluoride added, concentration not given), the “time until all phosphates are removed from peptide substrate 1” value is 2 min.
As for `N[C@@H](Cc1ccc(OP(=O)(O)O)cc1)C(=O)O` [phosphotyrosine], the “effect on tyrosine phosphatase activity” value in assay [1] is “inhibit the dephosphorylation”. In addition, the “effect on taste cell response to chlorpheniramine maleate” value in the assay with mud puppy taste cells (inhibitor mixed with chlorpheniramine maleate) is on record as “decreases the response”. Besides, in the assay on mud puppy taste cells, the “effect … to denatonium benzoate” value was “decreases the response” and the “effect … to dextromethorphan” value is given as “decreases the response”. In addition, in assay [2] (pig taste tissue 41 ug/ml protein, room temperature, final concentration 10 nmoles/ml), the “time until complete dephosphorylation of substrate 1” value is 7 min.
For `CC1CCC(C(C)C)C(OP(=O)(O)O)C1` (stereo not drawn) [MMP, menthylmonophosphate], at alkaline phosphatase, the “type of inhibition of alkaline phosphatase” value is on record as “competitively inhibited”.
For `COc1ccc2c(c1)[C@]13CCCC[C@@H]1[C@H](C2)N(C)CC3` [dextromethorphan], the “taste cell response to bitter tasting compound” value in the assay with mud puppy taste cells was “increase in intracellular calcium concentration”.
In the case of `CC[N+](CC)(CC(=O)Nc1c(C)cccc1C)Cc1ccccc1` [denatonium benzoate], the “taste cell response to bitter tasting compound” value in the assay on mud puppy taste cells was “increase in intracellular calcium concentration”.
With `Cc1ccc(C(C)C)c(OP(=O)(O)O)c1` [ThMP, thymylmonophosphate], the “type of inhibition of alkaline phosphatase” value on alkaline phosphatase is “competitively inhibited”. In assay [3] (22°C), this molecule returned a Ki of 3.6 mM.
`C=C1[C@@H](O)[C@@H]2O[C@]3(CC[C@H](/C=C/[C@@H](C)[C@@H]4CC(C)=C[C@@]5(O[C@H](C[C@@](C)(O)C(=O)O)CC[C@H]5O)O4)O3)CC[C@H]2O[C@@H]1[C@@H](O)C[C@H](C)[C@H]1O[C@@]2(CCCCO2)CC[C@H]1C` [okadaic acid]: in the assay on mud puppy taste cells, the “effect … to denatonium benzoate” value is on record as “has no effect on response” and the “effect … to dextromethorphan” value was “has no effect on response”.
On to `O=C(O)CP(=O)(O)O` [phosphonic acetic acid], for which, in the assay with mud puppy taste cells, the “effect … to denatonium benzoate” value was “small reduction in response” and the “effect … to dextromethorphan” value was “small reduction in response”.
